Results on 51 compounds are retold here after PubChem BioAssay AID1996.

What is called solubility (kinetic) is solubility judged after dilution from a stock solution rather than from solid.

≈ marks a conversion by molar mass, not a printed value. A value given as a limit tells only on which side of the number the result lay.

The conditions of the data set: buffer; pH 7.4; 200.0 µM.
The compound `FC(F)(F)c1cc(Nc2ccccc2)nc(-c2ccccn2)n1` had a solubility (kinetic) of 2.9 µg/mL (≈ 9.17 µM).
In turn, `COc1ccc(C(CNS(=O)(=O)c2ccc(NC(C)=O)c(OC)c2)N2CCCC2)cc1.Cl` (stereo unspecified) came in with a kinetic solubility greater than 72.6 µg/mL.
Regarding `CC(CCc1ccc(O)cc1)NC1c2ccccc2-c2ccccc21` (stereo unspecified), the solubility (kinetic) turned out to be 26.1 µg/mL (≈ 79.2 µM).
As for `COc1ccccc1N1CCN(C(=O)c2cc3cc(Cl)ccc3[nH]2)CC1`, the figure is less than 0.3 µg/mL; as for `O=C(Nc1ccc(-c2cn3c(n2)SCC3)cc1)c1ccco1`, 24.1 µg/mL (≈ 77.4 µM).
Take `CCc1ccc[n+](-c2nc([O-])sc2C=O)c1`: the kinetic solubility was greater than 35.1 µg/mL.
With `Cn1ccsc1=NC(=O)c1ccc(=O)[nH]c1` the figure was 30.6 µg/mL (≈ 130 µM); with `CCC(=O)Nc1ccc(-c2ccc(N3CCN(C)CC3)nn2)cc1`, greater than 48.8 µg/mL; with `CC1(C)COCN1C(=O)c1ccc(C#N)cc1`, greater than 34.5 µg/mL.
As for `Cc1ccc(/C=N/NC(=O)c2ccc3nc[nH]c3c2)o1`, the figure is greater than 40.2 µg/mL; as for `CN(C)CCO[C@@H](c1ccc(Cl)cc1)c1ccccn1.O=C(O)/C=C\C(=O)O`, greater than 61 µg/mL.
`COc1ccc(C(=S)N2CCCC2)cc1Br`: the kinetic solubility is greater than 45 µg/mL.
For the compound `Cc1ccccc1CNS(=O)(=O)c1csc(C(N)=O)c1`, the solubility (kinetic) was greater than 46.6 µg/mL.
With `CC(=O)C1=C(C)NC(SCC(N)=O)=C(C#N)C1c1ccco1` (stereo unspecified) the figure was greater than 47.6 µg/mL; with `CCOC(=O)/C(C#N)=C1\CC2CCC1(C)C2(C)C` (stereo unspecified), 1.7 µg/mL (≈ 6.87 µM).
On to `O=C(NC(=S)NCCC1=CCCCC1)c1cccnc1`, for which the solubility (kinetic) turned out to be 22.2 µg/mL (≈ 76.7 µM).
With `CN(C)C(=O)CN1C(=O)NC2(CCc3ccccc32)C1=O` (stereo unspecified) the figure was greater than 43.1 µg/mL; with `O=C(NCc1ccco1)C1CC(=O)N(c2cccc(Cl)c2)C1` (stereo unspecified), 39.7 µg/mL (≈ 125 µM).
Compound `COc1cccc(CN(C)S(=O)(=O)c2cccs2)c1` yielded a kinetic solubility of 25.1 µg/mL (≈ 84.4 µM). Compared with the last compound, the solubility kinetic is about 1.6-fold lower.
With `O=C(CN1CCCC1)Nc1ccc(Br)cc1[N+](=O)[O-]` the figure was 20.3 µg/mL (≈ 61.9 µM); with `COc1ccc(Cl)cc1NC(=O)COC(=O)C1CC1`, 34.4 µg/mL (≈ 121 µM); with `CC(=O)c1c(C)[nH]c(C(=O)OCC(=O)N(Cc2ccccc2)C(C)(C)C)c1C`, 12 µg/mL (≈ 31.2 µM).
As for `Cc1ccc(C(O)(CCN2CCCCC2)c2ccccc2)cc1.Cl` (stereo unspecified), the figure is greater than 51.9 µg/mL.
`CCOc1ncccc1C(=O)OCC(=O)NC1CCCCC1` yielded a kinetic solubility of 34.2 µg/mL (≈ 112 µM).
As to `Cc1cc(C)cc(OCC(=O)O/N=C(\N)c2ccccc2Cl)c1`, the solubility (kinetic) was 13.3 µg/mL (≈ 40 µM).
With `Cn1c(/C=C/c2cccc(Br)c2)nc2ccccc2c1=O` the figure was 0.7 µg/mL (≈ 2.05 µM); with `O=C(CNC(=O)[C@@H]1Cc2ccccc2CN1)NCc1ccco1`, greater than 47 µg/mL; with `CCOC(=O)CCNCc1ccc(OC)c(OC)c1.Cl`, greater than 45.6 µg/mL.
With `O=C(NC(CO)C(=O)OCc1ccccc1)OCc1ccccc1` (stereo unspecified) the figure was greater than 49.4 µg/mL.
The compound `O=C(NC(=S)/C(=C1\CCCCCN1)[N+](=O)[O-])c1ccccc1` came in with a kinetic solubility of 44.9 µg/mL (≈ 141 µM).
As to `CCCN(CC(=O)Nc1ccccc1C)C(=O)CCl`, the solubility (kinetic) is greater than 42.4 µg/mL.
With `COc1ccc(C(=O)N2CCC(O)(c3ccc(Cl)cc3)CC2)cc1OC` the figure was greater than 56.4 µg/mL; with `CCCN1C(=O)/C(=C/c2ccc3c(c2)OCO3)NC1=S`, 1.9 µg/mL (≈ 6.54 µM); with `Cc1ccc(S(=O)(=O)CC(=O)Nc2ccc(Cl)cn2)cc1`, 5.4 µg/mL (≈ 16.6 µM).
As for `CCOc1ccc(NC(=S)NCc2ccc3[nH]c(C)cc3c2)cc1`, the figure is 11.4 µg/mL (≈ 33.6 µM); as for `O=C1CSC(=Nc2ccc(Cl)cc2)N1Cc1cccnc1`, 8.3 µg/mL (≈ 26.1 µM).
With `CCOC(=O)C1CCN(C(=O)c2cc3cc(F)ccc3[nH]2)CC1` the figure was 32.4 µg/mL (≈ 102 µM); with `CC1=C(C(=O)OCc2ccccc2)C(c2ccccc2)NC(=O)N1` (stereo unspecified), 2.8 µg/mL (≈ 8.69 µM).
On to `Cc1csc(NC(=O)c2cc(C)on2)n1`, for which the solubility (kinetic) was greater than 33.5 µg/mL.
With `C=CCNc1nc(N)c([N+](=O)[O-])c(NCc2ccccc2)n1` the figure was 0.7 µg/mL (≈ 2.33 µM); with `CCCCCOC(=O)C1=C(C)NC(=O)NC1c1ccccc1` (stereo unspecified), 4.9 µg/mL (≈ 16.2 µM).
As for `COc1ccc(Cl)cc1NS(=O)(=O)N1CCOCC1`, the solubility (kinetic) is greater than 46 µg/mL.
Consider `CCCCN(C(=O)C1CCCC1)C1CCS(=O)(=O)C1` (stereo unspecified), for which the solubility (kinetic) is greater than 43.1 µg/mL.
With `O=C(Nc1ccc(F)cc1)c1cncs1` the figure was greater than 33.3 µg/mL; with `CC(Cc1ccccc1)NC(=O)c1ccc(N)cc1` (stereo unspecified), greater than 38.1 µg/mL.
In the case of `Cc1cc(NC(=O)CSc2ncc(C(=O)O)n2-c2ccc(F)cc2)no1`, the solubility (kinetic) amounted to 55.4 µg/mL (≈ 147 µM).
As for `O=C(NCc1ccco1)C(=O)NCC(c1ccco1)N1CCOCC1` (stereo unspecified), the figure is 47.2 µg/mL (≈ 136 µM); as for `Cc1ccc(O)c(NC(=O)c2ccccc2-c2ccccc2C(=O)O)c1`, greater than 52.1 µg/mL; as for `O=C(NCc1ccco1)C1CCCN1C(=O)Nc1ccccc1` (stereo unspecified), 43.5 µg/mL (≈ 139 µM).
On to `O=C(O)c1ccc2[nH]c3c(c2c1)CCCC3`, for which the kinetic solubility is greater than 32.3 µg/mL.
As for `COc1ccc(CCNC(=O)c2cc3c(C)nccc3[nH]c2=O)cc1OC`, the figure is 17.1 µg/mL (≈ 46.5 µM).
